Values quoted from earlier work, collected in US5696156A, “Triterpene derivatives with immunosuppressant activity” (Merck & Co. Inc., priority 1996, dated 1997).

Test system: Kv 1.3 channels
Details: stated for the reference blocker that defines the efflux window

margatoxin (TIINVKCTSPKQCLPPCKAQFGQSAGAKCMNGKCKCYPH; UniProt P40755 1-39, looked up)
IC50: 0.1 nM
